Reference: PubChem BioAssay (NCI)
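Tested at 5 concentrations; 48 h exposure; 96-well plates; endpoints linearly interpolated, else capped at highest concentration. Abbreviation: GI50, concentration required for 50% inhibition of growth. TGI: total growth inhibition.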

Key:
Assay in all cases: DTP human tumour cell line panel, 48 h
[1] = system: OVCAR-8 ovarian
[2] = system: PC-3 prostate
[3] = system: MALME-3M melanoma
[4] = system: CAKI-1 renal
[5] = system: UACC-257 melanoma
[6] = system: DU-145 prostate
[7] = system: OVCAR-5 ovarian
[8] = system: MOLT-4 leukemia
[9] = system: UACC-62 melanoma
[10] = system: NCI-H23 lung

Compound	GI50 [1] [µM]	TGI [1] [µM]	GI50 [2] [µM]	TGI [2] [µM]	GI50 [3] [µM]	TGI [3] [µM]	GI50 [4] [µM]	TGI [4] [µM]	GI50 [5] [µM]	TGI [5] [µM]	GI50 [6] [µM]	TGI [6] [µM]	GI50 [7] [µM]	TGI [7] [µM]	GI50 [8] [µM]	TGI [8] [µM]	GI50 [9] [µM]	TGI [9] [µM]	GI50 [10] [µM]	TGI [10] [µM]
COc1ccc(-c2nsc3c2NC(=O)CC3c2ccsc2)cc1 (stereo not given)	0.409	> 25.2	0.334	> 100	0.135	72.9	0.298	> 100	3.08	38.4	0.422	2.87	0.773	> 100	0.514	24.1	0.295	65	0.375	73.8
S=c1ssnc1-c1cc2ccccc2o1	11.3	29.4	3.82	24.2	20.7	46.8	10	26.1	6.09	20.5	7.35	20.4	20.8	39.2	3.39	> 100	15.5	29.4	24.4	75.5
Cc1nc2c(C)ccc([N+](=O)[O-])c2c(NCCCN(C)C)c1C	–	> 71.6	–	> 47.9	–	> 55.3	–	> 100	–	54.5	–	> 100	–	> 100	–	> 100	–	> 100	–	> 100
COc1cc(-c2nc(-c3ccccc3)c(-c3ccccc3)[nH]2)cc(OC)c1O	26.5	83.2	17.9	50.2	18.8	40.3	20.5	55.2	21.7	44.8	17	32.1	15.4	31.7	17.1	64.9	15.2	29.6	19	38.7
CCN(CC)CCOC(COc1cc(C)cc(C)c1)COc1cc(C)cc(C)c1	7.23	22.2	2.6	10.1	1.88	3.86	3.7	16	4.89	17.2	3.4	13.4	1.85	6.18	2.08	5.73	1.74	4.61	2.36	14.7
COc1cc2c(c(OC)c1OC)-c1cc(I)c(O)cc1[C@@H](NC(C)=O)CC2	0.187	> 100	0.0395	> 100	> 100	> 100	3.58	> 100	49.1	> 100	0.0398	0.292	0.237	> 100	0.0437	> 100	0.0448	> 100	0.046	> 100
CCSC[C@@H]1C[C@](O)(c2ccccc2)[C@@H](c2ccccc2)O1	> 100	> 100	56.7	> 100	> 100	> 100	> 83.8	> 100	> 82.3	> 100	> 100	> 100	> 100	> 100	7.18	> 23.7	69.2	> 100	79.9	> 100
CCn1cc(C(=O)O)c(=O)c2cc(F)c(N3CCN(S(=O)(=O)c4ccc(Cl)cc4Cl)CC3)cc21	3.3	29	2.43	10.7	1.94	4.17	2.01	4.8	2.65	7.93	2.81	6.75	3.43	> 100	3.55	> 100	1.62	3.42	2.33	5.97
